Laboratory results as given in publication PMC4850841 (Journal of medicinal chemistry, 2013).
Where two headings read alike, the source gives them in different places.

Columns and labels:
[1] = target: GluK2 (Rattus norvegicus, UniProt P42260); experiment: Two electrode voltage clamp recordings, Xenopus laevis oocytes; format: cell-based; settings: co-applied with 100 µM glutamate
[2] = target: GluA1 (Rattus norvegicus, UniProt P19490); experiment: as above; format: cell-based; settings: co-applied with 100 µM glutamate
[3] = tested on: GluN2C/D-containing NMDA receptors; experiment: Potentiation of NMDA receptors, results stated jointly for both subtypes; format: cell-based, rat; settings: for EC50: read-out: EC50, GluN2C/GluN2D stated jointly
[4] = target: GluN1/GluN2D (Rattus norvegicus, UniProt Q62645); experiment: Two electrode voltage clamp recordings, Xenopus laevis oocytes; format: cell-based; settings: for activity at GluN1/GluN2D: 100 µM glutamate, 30 µM glycine
[5] = target: GluN1/GluN2C (Rattus norvegicus, UniProt Q00961); experiment: as above; format: cell-based; settings: for activity at GluN1/GluN2C: 100 µM glutamate, 30 µM glycine
[6] = tested on: sigma receptor σ1; format: binding; settings: 5 µM compound 83; n=4
[7] = target: κ opioid receptors (Homo sapiens, UniProt P41145); format: binding; settings: 5 µM compound 83
[8] = tested on: brain benzodiazepine site; format: binding; settings: 5 µM compound 83; n=4
[9] = tested on: sigma receptor σ2; format: binding; settings: 5 µM compound 83; n=4
[10] = tested on: GABA, glycine, serotonin, nicotinic acetylcholine, AMPA, kainate, and purinergic receptors; format: cell-based
[11] = tested on: peripheral benzodiazepine site; format: binding; settings: 5 µM compound 83; n=4
[12] = target: GluN1/GluN2A (Rattus norvegicus, UniProt Q00959); experiment: Two electrode voltage clamp recordings, Xenopus laevis oocytes; format: cell-based; settings: 100 µM glutamate, 30 µM glycine
[13] = target: GluN1/GluN2B (Rattus norvegicus, UniProt Q00960); experiment: as above; format: cell-based; settings: 100 µM glutamate, 30 µM glycine
[14] = Stability of potentiator activity of compound solution; format: physicochemical
[15] = target: GluN1/GluN2C (Rattus norvegicus, UniProt P35439+Q00961); experiment: Two electrode voltage clamp recordings, Xenopus laevis oocytes; format: cell-based
[16] = tested on: GluN2C/D-containing NMDA receptors; settings: cited from earlier work
[17] = maximally effective concentrations of glutamate and glycine
[18] = 10 µM compound co-applied with 100 µM glutamate and 30 µM glycine

Chain of GluN1/GluN2D (Q62645 28-1323, other chains not shown): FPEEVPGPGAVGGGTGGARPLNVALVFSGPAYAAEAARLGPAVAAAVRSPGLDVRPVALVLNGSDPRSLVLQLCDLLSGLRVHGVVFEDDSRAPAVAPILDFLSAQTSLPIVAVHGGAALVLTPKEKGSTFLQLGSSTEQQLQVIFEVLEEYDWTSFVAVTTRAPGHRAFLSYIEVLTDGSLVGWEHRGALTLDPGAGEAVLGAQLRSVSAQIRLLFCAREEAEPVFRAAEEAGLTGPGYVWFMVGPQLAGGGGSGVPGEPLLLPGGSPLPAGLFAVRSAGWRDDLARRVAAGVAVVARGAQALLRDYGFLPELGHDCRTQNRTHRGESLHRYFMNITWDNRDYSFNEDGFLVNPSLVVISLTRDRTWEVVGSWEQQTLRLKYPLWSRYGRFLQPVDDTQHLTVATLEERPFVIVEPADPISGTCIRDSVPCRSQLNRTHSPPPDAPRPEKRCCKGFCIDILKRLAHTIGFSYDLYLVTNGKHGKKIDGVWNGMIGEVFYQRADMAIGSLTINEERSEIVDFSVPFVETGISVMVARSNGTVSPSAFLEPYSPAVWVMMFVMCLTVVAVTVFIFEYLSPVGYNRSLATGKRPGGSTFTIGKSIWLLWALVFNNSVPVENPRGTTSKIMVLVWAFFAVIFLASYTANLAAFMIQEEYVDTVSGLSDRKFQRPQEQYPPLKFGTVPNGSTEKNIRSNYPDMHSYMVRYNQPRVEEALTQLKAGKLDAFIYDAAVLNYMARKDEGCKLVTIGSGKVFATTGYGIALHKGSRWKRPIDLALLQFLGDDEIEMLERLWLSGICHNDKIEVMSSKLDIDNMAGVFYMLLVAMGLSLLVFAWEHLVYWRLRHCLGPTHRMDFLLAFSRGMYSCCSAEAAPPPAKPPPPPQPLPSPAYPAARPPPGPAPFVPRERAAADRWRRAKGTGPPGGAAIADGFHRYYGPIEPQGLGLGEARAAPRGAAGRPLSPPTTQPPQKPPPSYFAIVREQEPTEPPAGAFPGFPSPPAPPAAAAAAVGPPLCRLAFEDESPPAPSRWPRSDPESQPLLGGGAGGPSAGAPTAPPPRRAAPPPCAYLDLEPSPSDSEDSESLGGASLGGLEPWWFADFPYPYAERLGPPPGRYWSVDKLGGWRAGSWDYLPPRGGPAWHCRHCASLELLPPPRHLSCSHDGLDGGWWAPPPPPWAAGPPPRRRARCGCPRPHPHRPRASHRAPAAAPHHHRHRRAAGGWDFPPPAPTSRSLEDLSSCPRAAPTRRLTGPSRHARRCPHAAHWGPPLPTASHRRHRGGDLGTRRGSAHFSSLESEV
Chain of GluA1 (P19490 19-907): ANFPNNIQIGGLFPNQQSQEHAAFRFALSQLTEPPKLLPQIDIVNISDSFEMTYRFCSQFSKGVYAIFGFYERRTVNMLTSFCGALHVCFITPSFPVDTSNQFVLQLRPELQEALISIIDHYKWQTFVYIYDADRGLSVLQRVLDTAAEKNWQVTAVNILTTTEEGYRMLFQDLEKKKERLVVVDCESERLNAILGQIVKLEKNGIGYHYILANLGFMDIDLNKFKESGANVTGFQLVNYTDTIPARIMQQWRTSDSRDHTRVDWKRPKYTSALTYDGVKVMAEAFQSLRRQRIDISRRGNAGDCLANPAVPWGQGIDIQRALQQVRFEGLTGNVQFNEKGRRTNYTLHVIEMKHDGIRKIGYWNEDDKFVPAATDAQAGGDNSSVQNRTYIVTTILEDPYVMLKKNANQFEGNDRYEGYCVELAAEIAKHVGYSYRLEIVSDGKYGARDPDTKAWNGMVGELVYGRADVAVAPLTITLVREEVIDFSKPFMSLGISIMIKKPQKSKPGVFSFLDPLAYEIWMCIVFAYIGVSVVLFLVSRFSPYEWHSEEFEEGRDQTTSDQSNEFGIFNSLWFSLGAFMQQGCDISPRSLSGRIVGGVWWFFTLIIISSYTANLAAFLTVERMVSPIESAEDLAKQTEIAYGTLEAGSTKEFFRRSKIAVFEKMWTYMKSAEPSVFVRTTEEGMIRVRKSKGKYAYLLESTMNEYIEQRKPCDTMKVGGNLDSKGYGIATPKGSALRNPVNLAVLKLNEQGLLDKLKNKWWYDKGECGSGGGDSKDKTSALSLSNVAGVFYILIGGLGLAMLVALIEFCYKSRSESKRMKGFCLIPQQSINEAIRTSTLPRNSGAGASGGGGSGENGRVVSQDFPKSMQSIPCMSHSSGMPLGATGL
Chain of GluN1/GluN2A (Q00959 23-1464, other chains not shown): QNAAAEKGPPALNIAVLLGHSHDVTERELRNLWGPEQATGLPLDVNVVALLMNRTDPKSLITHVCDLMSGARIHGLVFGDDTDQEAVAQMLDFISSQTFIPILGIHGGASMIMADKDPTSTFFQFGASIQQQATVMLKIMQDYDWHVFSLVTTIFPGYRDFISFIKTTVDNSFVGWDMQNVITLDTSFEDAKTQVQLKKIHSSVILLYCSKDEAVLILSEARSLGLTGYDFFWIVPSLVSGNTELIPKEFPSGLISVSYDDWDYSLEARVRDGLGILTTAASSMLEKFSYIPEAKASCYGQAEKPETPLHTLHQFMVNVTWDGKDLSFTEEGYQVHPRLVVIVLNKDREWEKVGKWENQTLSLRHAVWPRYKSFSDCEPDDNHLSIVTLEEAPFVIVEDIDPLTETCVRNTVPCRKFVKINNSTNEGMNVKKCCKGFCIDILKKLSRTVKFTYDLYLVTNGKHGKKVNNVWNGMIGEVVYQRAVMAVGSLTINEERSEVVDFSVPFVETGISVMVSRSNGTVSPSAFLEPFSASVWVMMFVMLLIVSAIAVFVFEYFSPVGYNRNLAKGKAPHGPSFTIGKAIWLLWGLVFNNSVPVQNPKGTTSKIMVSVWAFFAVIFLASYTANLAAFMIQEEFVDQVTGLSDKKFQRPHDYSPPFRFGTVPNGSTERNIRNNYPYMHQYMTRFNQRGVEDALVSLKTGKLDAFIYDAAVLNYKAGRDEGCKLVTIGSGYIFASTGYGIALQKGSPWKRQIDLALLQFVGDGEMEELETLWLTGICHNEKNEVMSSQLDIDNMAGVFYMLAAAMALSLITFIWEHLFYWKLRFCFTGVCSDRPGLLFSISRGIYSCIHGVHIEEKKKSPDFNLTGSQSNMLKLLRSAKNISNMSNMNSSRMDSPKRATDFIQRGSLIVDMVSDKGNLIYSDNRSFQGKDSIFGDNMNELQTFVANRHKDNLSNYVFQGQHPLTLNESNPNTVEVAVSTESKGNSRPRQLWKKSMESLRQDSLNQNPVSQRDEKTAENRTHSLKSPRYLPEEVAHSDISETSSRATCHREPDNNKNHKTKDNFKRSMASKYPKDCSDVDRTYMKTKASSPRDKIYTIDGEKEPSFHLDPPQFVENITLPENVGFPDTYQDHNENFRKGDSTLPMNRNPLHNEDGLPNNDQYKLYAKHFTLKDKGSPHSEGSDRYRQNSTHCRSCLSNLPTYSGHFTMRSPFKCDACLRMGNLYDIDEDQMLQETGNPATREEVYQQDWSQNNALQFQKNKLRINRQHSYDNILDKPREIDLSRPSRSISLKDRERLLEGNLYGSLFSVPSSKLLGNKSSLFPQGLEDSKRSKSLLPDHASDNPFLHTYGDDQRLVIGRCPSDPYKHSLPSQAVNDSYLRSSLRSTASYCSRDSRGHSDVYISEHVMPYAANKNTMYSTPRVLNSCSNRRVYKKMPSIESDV
Chain of GluN1/GluN2B (Q00960 27-1482, other chains not shown): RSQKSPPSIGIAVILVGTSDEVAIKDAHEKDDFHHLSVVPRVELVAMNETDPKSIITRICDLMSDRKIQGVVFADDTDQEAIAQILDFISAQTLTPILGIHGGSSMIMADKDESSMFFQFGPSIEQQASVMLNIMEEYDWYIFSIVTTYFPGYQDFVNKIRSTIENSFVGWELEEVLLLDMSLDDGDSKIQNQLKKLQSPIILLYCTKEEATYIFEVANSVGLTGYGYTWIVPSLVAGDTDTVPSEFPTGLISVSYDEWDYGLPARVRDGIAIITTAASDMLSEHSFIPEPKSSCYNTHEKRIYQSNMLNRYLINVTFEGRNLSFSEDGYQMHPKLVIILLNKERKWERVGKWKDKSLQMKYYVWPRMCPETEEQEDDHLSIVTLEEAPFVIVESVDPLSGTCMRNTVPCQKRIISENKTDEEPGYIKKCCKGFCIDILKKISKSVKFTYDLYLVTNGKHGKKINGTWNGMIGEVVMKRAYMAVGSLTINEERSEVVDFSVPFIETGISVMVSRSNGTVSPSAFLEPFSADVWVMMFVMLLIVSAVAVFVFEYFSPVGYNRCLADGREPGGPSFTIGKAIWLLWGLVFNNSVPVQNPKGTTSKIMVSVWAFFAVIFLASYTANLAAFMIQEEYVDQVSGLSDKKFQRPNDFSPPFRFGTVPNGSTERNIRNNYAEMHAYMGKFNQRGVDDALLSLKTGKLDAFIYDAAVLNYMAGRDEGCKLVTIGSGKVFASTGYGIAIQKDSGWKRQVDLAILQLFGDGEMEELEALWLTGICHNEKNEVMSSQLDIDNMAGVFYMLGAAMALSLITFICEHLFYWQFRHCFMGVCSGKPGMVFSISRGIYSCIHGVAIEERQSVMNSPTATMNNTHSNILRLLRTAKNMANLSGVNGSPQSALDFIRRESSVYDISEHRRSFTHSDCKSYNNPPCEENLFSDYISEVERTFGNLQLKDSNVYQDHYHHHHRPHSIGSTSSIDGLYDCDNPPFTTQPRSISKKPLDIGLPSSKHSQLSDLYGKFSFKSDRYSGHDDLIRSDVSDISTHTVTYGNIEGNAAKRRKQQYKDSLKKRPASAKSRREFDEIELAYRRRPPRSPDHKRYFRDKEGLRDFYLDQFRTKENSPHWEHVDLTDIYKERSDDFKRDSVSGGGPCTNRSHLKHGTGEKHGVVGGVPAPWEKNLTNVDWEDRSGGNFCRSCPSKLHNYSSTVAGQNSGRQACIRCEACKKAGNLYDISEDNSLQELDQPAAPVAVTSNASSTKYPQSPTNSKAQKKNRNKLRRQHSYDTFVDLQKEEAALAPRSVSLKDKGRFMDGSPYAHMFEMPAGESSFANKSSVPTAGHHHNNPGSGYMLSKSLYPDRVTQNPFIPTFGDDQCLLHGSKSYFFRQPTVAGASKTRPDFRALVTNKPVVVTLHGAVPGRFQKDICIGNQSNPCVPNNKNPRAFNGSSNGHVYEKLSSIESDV

Compound | effect on GluK2-mediated currents [1] | effect on homomeric GluA1 responses [2] | activity at GluN1/GluN2D [4] | activity at GluN1/GluN2C [5] | effect on GluN1/GluN2A responses [12] | effect on GluN1/GluN2B responses [13] | also measured
COc1ccc(OCC2c3cc(OC)c(OC)cc3CCN2C(=O)c2ccccc2)cc1 (stereo not shown) [compound 1, (6,7-dimethoxy-1-((4-methoxyphenoxy)methyl)-3,4-dihydroisoquinolin-2(1H)-yl)(phenyl)methanone] | no effect | no effects |  |  |  |  | enhancement of response of GluN2C/D-containing NMDA receptors [3, 17]: 1.5 fold; agonist activity on their own ([3]; without co-agonists): no agonist activity
COc1ccc(OCC2c3cc(OC)c(OC)cc3CCN2C(=O)c2cccs2)cc1 (stereo not shown) [compound 203] |  |  | no or minimal potentiating effects | weak activity |  |  | 
COc1ccc(OCC2c3cc(OC)c(OC)cc3CCN2C(=O)c2cccc(Br)c2)cc1 (stereo not shown) [compound 190] | no effect | no effects |  |  |  |  | 
COc1ccc(OCC2c3ccc(OCc4ccccc4)cc3CCN2C(=O)c2cccc(Br)c2)cc1 (stereo not shown) [compound 83, (6-(benzyloxy)-1-((4-methoxyphenoxy)methyl)-3,4-dihydroisoquinolin-2(1H)-yl)(3-bromophenyl)methanone] |  |  |  |  |  |  | inhibition of ligand binding [6]: less than 50%; initial screen at κ opioid receptors [7]: significant inhibition; EC50 [3, 17]: 0.3 to 0.4 µM; inhibition of ligand binding [8]: less than 50%; inhibition of ligand binding [9]: less than 50%; selectivity for GluN2C or GluN2D compared to these receptors [10]: approximately 100 fold; inhibition of off-target receptors ([10]; 3 µM compound 83): less than 10%; potentiation of off-target receptors ([10]; 3 µM compound 83): < 5%; inhibition of ligand binding [11]: less than 50%
COc1ccc(OC[C@@H]2c3cc(OC)c(OC)cc3CCN2C(=O)c2cccc(Cl)c2)cc1 [2-S, (S)-(3-chlorophenyl)(6,7-dimethoxy-1-((4-methoxyphenoxy)methyl)-3,4-dihydroisoquinolin-2(1H)-yl)methanone] |  |  |  |  | no effect | no effect | 
(1-((4-(benzyloxy)phenoxy)methyl)-6,7-dimethoxy-3,4-dihydroisoquinolin-2(1H)-yl)(3-chlorophenyl)methanone [compound 109] |  |  |  |  |  |  | I10 µM / ICONTROL (mean ± SEM, %) GluN2D [4, 18]: 93 ± 2.5%; activity on GluN2C- or GluN2D-containing receptors [3]: no detectable activity; I10 µM / ICONTROL (mean ± SEM, %) GluN2C [5, 18]: 93 ± 1.6%
COC(=O)c1ccc(OCC2c3cc(OC)c(OC)cc3CCN2C(=O)c2cccc(Br)c2)cc1 (stereo not shown) [compound 207] |  |  |  | weakly active |  |  | 
COc1cc2c(cc1OC)CN(C(=O)c1cccc(Br)c1)CC2 [compound 7, (3-bromophenyl)(6,7-dimethoxy-3,4-dihydroisoquinolin-2(1H)-yl)methanone] |  |  | inactive | inactive | inactive | inactive | 
COc1cc2c(cc1OC)CN(C(=O)c1cccc(Cl)c1)CC2 [compound 6, (3-chlorophenyl)(6,7-dimethoxy-3,4-dihydroisoquinolin-2(1H)-yl)methanone] |  |  | inactive | inactive | inactive | inactive | 
COc1ccc(OCC2c3cc(OC)c(OC)cc3CCN2C(=O)c2cccc(F)c2)cc1 (stereo not shown) [compound 197] | no effect | no effects |  |  |  |  | 
COc1ccc(OCC2c3cc(OC)c(OC)cc3CCN2C(=O)c2cccc(Cl)c2)cc1 (stereo not shown) [compound 2] | no effect | no effects |  |  |  |  | EC50 [3, 17]: 4.6 to 5 µM; activity of solution after 24 hours ([14]; 24 hours after making the solution): no activity; activity (potency and efficacy) retained without loss until ([14]; compound solutions tested on GluN1/GluN2C in BHK cells at different time points): 6 h; EC50 [15]: 4.6 µM; enhancement of receptor responses [16]: less than 2 fold; EC50 ([16]; read-out: reported EC50): 3 µM
COc1cc2c(cc1OC)CN(C(=O)c1ccccc1)CC2 [compound 5, (6,7-dimethoxy-3,4-dihydroisoquinolin-2(1H)-yl)(phenyl)methanone] |  | no effects | inactive | inactive | inactive | inactive | 
